The values below come from PubChem BioAssay (NCI).

The TGI is the concentration giving total growth inhibition. By GI50 is commonly meant the concentration giving 50% growth inhibition.

Test systems include K-562 leukemia; A549 NSCLC; HS 578T breast; SF-268 CNS; MDA-MB-231 breast; HCT-116 colon; SR leukemia; CAKI-1 renal; RXF 393 renal; SNB-75 CNS.
Assay in all cases: DTP human tumour cell line panel, 48 h

Several values for one entry are separate records, joined by “and”; a condition that tells them apart may be missing. Equal entries are not always repeated.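 96-well plates; 48 h exposure; 5 concentrations. Endpoints by linear interpolation between flanking doses. Not reached: highest tested concentration assigned. Here, GI50 denotes the concentration required for 50% inhibition of growth. TGI: concentration producing complete growth inhibition.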

Consider `CCCNC(=O)Nc1ccc2c(c1)Cc1cc(N(CCCl)CCCl)ccc1-2`, for which the TGI is above 100 µM in the assay on K-562 leukemia; above 100 µM in the assay with A549 NSCLC; 61.4 µM in the assay on HS 578T breast; above 100 µM in the assay with SF-268 CNS; above 100 µM in the assay with MDA-MB-231 breast; above 100 µM in the assay with HCT-116 colon. Besides, the TGI was above 100 µM with SR leukemia, above 100 µM with CAKI-1 renal and 34.2 µM in the assay with RXF 393 renal.

For `N#CC1C(=O)NC(=O)C(C#N)C1c1ccc(Cl)c(Cl)c1` (stereo unspecified), the TGI in the assay on K-562 leukemia is 85.8 µM; in the assay on A549 NSCLC, above 100 µM; with HS 578T breast it was 65.6 µM; with SF-268 CNS it was above 100 µM; in the assay on MDA-MB-231 breast it was above 100 µM; in the assay with HCT-116 colon it was 29.7 µM. In addition, the TGI in the assay on SNB-75 CNS amounted to 74.2 µM; in the assay on SR leukemia it was 41.6 µM; in the assay with CAKI-1 renal, 71.6 µM; with RXF 393 renal it was 50.5 µM.

For the molecule `C=CC(=O)Nc1cccc(Nc2nc(Nc3ccc(N4CCN(C(C)=O)CC4)cc3OC)ncc2C(F)(F)F)c1`, the GI50 with K-562 leukemia was 8.12 µM and 5.61 µM; in the assay with A549 NSCLC it was 2.52 µM and 1.81 µM; with HS 578T breast, 3.73 µM and 3.36 µM; in the assay on SF-268 CNS it was 5.29 µM and 3.19 µM; in the assay on MDA-MB-231 breast, 4.47 µM and 4.02 µM; in the assay on HCT-116 colon it was 3.96 µM and 2.54 µM. The GI50 in the assay with SNB-75 CNS is 5.18 µM and 2.47 µM; with SR leukemia it was 3.37 µM and 1.45 µM; with CAKI-1 renal, 2.32 µM and 1.64 µM; with RXF 393 renal it was 2.83 µM and 2.17 µM. In addition, the total growth inhibition concentration (TGI) was above 100 µM in the assay on K-562 leukemia; > 10 µM and 12.1 µM in the assay with A549 NSCLC; above 95.9 µM in the assay on HS 578T breast; > 10 µM and 26.2 µM in the assay on SF-268 CNS; > 10 µM and 20.6 µM with MDA-MB-231 breast; above 54.4 µM with HCT-116 colon. Moreover, the TGI in the assay with SNB-75 CNS is > 10 µM and 15.3 µM; in the assay on SR leukemia, 8.32 µM and > 45.3 µM; in the assay with CAKI-1 renal it was > 10 µM and 6.01 µM; with RXF 393 renal it was > 10 µM and 10.1 µM.

For the molecule `CCC(=O)OCN1C(=O)C=CC1=O`, the GI50 is 4.19 µM with K-562 leukemia; 27.8 µM in the assay on HS 578T breast; 19.1 µM in the assay with SF-268 CNS; 11.8 µM in the assay with HCT-116 colon; 3.27 µM with SR leukemia; 10.5 µM in the assay with CAKI-1 renal. Besides, the TGI with A549 NSCLC is 39.9 µM and 34.9 µM; in the assay with HS 578T breast it was 73.3 µM and 36.5 µM; with SF-268 CNS, 36.9 µM and 41.3 µM; in the assay on MDA-MB-231 breast it was 33.2 µM and 33.1 µM; in the assay on HCT-116 colon, 25.8 µM and 29.9 µM; in the assay on SR leukemia, above 100 µM. In addition, the TGI was 25.3 µM and 9.35 µM in the assay on CAKI-1 renal; 30.6 µM and 30.5 µM with RXF 393 renal.

For `Nc1nc(N)c(-c2ccc(Cl)cc2)c(/C=C/c2ccc([N+](=O)[O-])cc2)n1`, the GI50 is 3.16 µM in the assay with K-562 leukemia; 3.1 µM in the assay on A549 NSCLC; 9.97 µM with HS 578T breast; 8.32 µM in the assay with SF-268 CNS; 8.01 µM with MDA-MB-231 breast; 3.97 µM with HCT-116 colon. Also, the figures for the GI50 in the assay on SNB-75 CNS, in the assay with SR leukemia and in the assay on CAKI-1 renal were 5 µM, 6.25 µM and 4.92 µM, respectively. Besides, the TGI in the assay on K-562 leukemia was above 100 µM; in the assay with A549 NSCLC, 47.8 µM; in the assay with HS 578T breast, above 100 µM; in the assay with SF-268 CNS, 93.9 µM; in the assay on MDA-MB-231 breast, above 100 µM; with HCT-116 colon it was above 100 µM. Further, the results for the TGI in the assay with SNB-75 CNS, in the assay on SR leukemia and with CAKI-1 renal were 34 µM, above 100 µM and above 100 µM, respectively.

Turning to `COC(=O)[C@]1(C)CC[C@]2(C)CC[C@]3(C)C(=CC(=O)[C@@H]4[C@@]5(C)CCC(=O)NC(C)(C)[C@@H]5CC[C@]43C)[C@@H]2C1`, the GI50 in the assay on K-562 leukemia is 7.4 µM; with A549 NSCLC it was 32.8 µM; with HS 578T breast, 32.7 µM; with SF-268 CNS, 28.2 µM; with MDA-MB-231 breast, 20.9 µM; in the assay with HCT-116 colon, 10.8 µM. The GI50 with SNB-75 CNS is 25.5 µM; in the assay on SR leukemia, 15.5 µM; with CAKI-1 renal, 35.9 µM; in the assay on RXF 393 renal, 13.5 µM. The TGI is 66.5 µM in the assay on K-562 leukemia; above 100 µM with A549 NSCLC; above 100 µM in the assay on HS 578T breast; above 100 µM with SF-268 CNS; 48.7 µM with MDA-MB-231 breast; 25.6 µM in the assay on HCT-116 colon. The TGI was above 100 µM with SNB-75 CNS, 50.5 µM in the assay with SR leukemia, above 100 µM in the assay on CAKI-1 renal and 27.5 µM in the assay on RXF 393 renal.

As to `Nc1cc(N)c2nc(-c3ccccc3)c(Oc3ccc(Cl)c(Cl)c3)nc2c1`, the GI50 was 3.55 µM in the assay on K-562 leukemia; 18.1 µM in the assay with A549 NSCLC; 10.6 µM in the assay on HS 578T breast; 17.1 µM with SF-268 CNS; 10.3 µM in the assay on MDA-MB-231 breast; 15.7 µM with HCT-116 colon. Besides, the GI50 in the assay with SR leukemia is 3.36 µM; in the assay on CAKI-1 renal it was 14.5 µM; in the assay with RXF 393 renal it was 25.2 µM. In addition, the TGI in the assay on K-562 leukemia was above 100 µM; with A549 NSCLC it was 43.5 µM; in the assay with HS 578T breast it was 33.7 µM; in the assay on SF-268 CNS, 52.5 µM; in the assay with MDA-MB-231 breast, 26.2 µM; in the assay with HCT-116 colon it was 48.3 µM. For the same molecule, the TGI with SR leukemia is 24.2 µM; in the assay on CAKI-1 renal it was 35.9 µM; in the assay with RXF 393 renal, 85.4 µM.

Regarding `CCCCCCCCCCCCCCCC(N)c1ccccc1` (stereo unspecified), the GI50 is 1.89 µM in the assay on K-562 leukemia; 1.78 µM in the assay with A549 NSCLC; 2.02 µM in the assay on HS 578T breast; 1.63 µM in the assay on SF-268 CNS; 1.35 µM in the assay on MDA-MB-231 breast; 1.27 µM with SNB-75 CNS. The results for the GI50 in the assay with SR leukemia, with CAKI-1 renal and in the assay with RXF 393 renal were 0.558 µM, 1.53 µM and 1.71 µM, respectively. For the same molecule, the TGI in the assay with K-562 leukemia stood at 4.2 µM; in the assay on A549 NSCLC, 3.56 µM; in the assay on HS 578T breast, 4.64 µM; in the assay with SF-268 CNS, 3.26 µM; with MDA-MB-231 breast, 2.95 µM; in the assay with SNB-75 CNS, 2.88 µM. In addition, the TGI with SR leukemia was 2.43 µM; in the assay with CAKI-1 renal, 2.96 µM; with RXF 393 renal it was 3.41 µM.

Regarding `CC(=O)Nc1cc(CN2CCCCC2)c(O)c2ncccc12`, the TGI in the assay on K-562 leukemia is above 100 µM; in the assay with A549 NSCLC it was above 100 µM; in the assay on HS 578T breast, above 100 µM; in the assay with SF-268 CNS it was 79.2 µM; with MDA-MB-231 breast it was 55.6 µM; in the assay on HCT-116 colon, 75.9 µM. Besides, the figures for the TGI with SR leukemia, in the assay on CAKI-1 renal and with RXF 393 renal were 37.5 µM, above 100 µM and above 100 µM, respectively.
